Structures can show the parent of a compound that is named as a salt.
Columns and labels:
[1] = tested on: murine SCCVII; test: Clonogenic assay under aerobic and hypoxic conditions, SCCVII; assay type: cell-based; details: SCVIII cells; for IC90: Mus musculus, 1 h, hypoxic, 60 min drug exposure, SN (hypoxic), read-out: C10 hypoxic; for HCR: ratio of C10 under aerobic and hypoxic conditions; for RHT: ratio of hypoxic TPZ C10 to hypoxic compound C10
Experimental: Evaluation of the Cytotoxicity of Compounds by Clonogenic Assay Under Aerobic and Hypoxic Conditions.
Compounds representative of the invention were evaluated under both aerobic and hypoxic conditions in clonogenic assays, using three cell lines: human colon carcinoma HT-29, murine SCCVII, and human lung adenocarcinoma LXFL. Clonogenic survival was determined using aerobic and hypoxic SCCVII cell suspensions. Drug exposures were performed using continuously stirred and gassed single cell suspensions (10^6 cells/mL) at 37° C., equilibrated with 5% CO2 in air or N2 for 60 min before drug addition. After a 60 min drug exposure cells were washed by centrifugation and plated to determine colony formation Cytotoxicity was measured as the concentration required to reduce plating efficiency to 10% of controls (C10). The hypoxic cytotoxicity ratio (HCR) was determined as the ratio of the C10 values under aerobic and hypoxic conditions. The relative hypoxic toxicity (RHT) was determined as the ratio of hypoxic TPZ C10 to hypoxic BTO C10. Abbreviations used in Table 2 are:
C10=The concentration of drug (in micromolar) to reduce viable cell numbers to 10% of those of control cell cultures grown under the same conditions but not exposed to drug
(§1) RHT=Relative hypoxic toxicity is defined as the ratio of concentrations of Tirapazamine/test compound to give equal cell killing under hypoxic conditions.
HCR=Hypoxic cytotoxicity ratio is defined as the ratio of drug concentrations under aerobic and hypoxic condition to produce equal cell survival (10%) determined by clonogenic assay

[2] = tested on: human colon carcinoma HT-29; test: Proliferation assay (IC50) under aerobic and hypoxic conditions, HT-29; assay type: cell-based; details: for RHT: HT-29, ratio Tirapazamine/test compound under hypoxic conditions; for HCR: HT-29, ratio of IC50 under aerobic and hypoxic conditions; for IC50: Homo sapiens, HT-29, hypoxic (anoxia <0.001% O2), 4 h exposure
Experimental: (§2) Evaluation of the Cytotoxicity of Compounds by Proliferation Assay (IC50) Under Aerobic and Hypoxic Conditions.
(§3) Compounds representative of the invention were evaluated under both aerobic and hypoxic conditions in a proliferation assay (IC50), using two cell lines: human colon carcinoma HT-29, and human cervical carcinoma SiHa.
(§4) Drug exposures were performed in 96-well plates (Nunc) using either a 37° C. humidified incubator (20% O2, 5% CO2) or in the incubator compartment (37° C.) of an anaerobic chamber (Shell Lab) where palladium catalyst scrubbed gas (90% N2, 5% H2, 5% CO2) ensures severe anoxia (<0.001% O2). For each experiment, compounds were simultaneously tested under both oxic and hypoxic conditions against the HT-29 cell line and included TPZ as an independent internal control at the front and back of the assay (n=2). Final data was pooled from a series of seven independent experiments and is calculated using inter-experimental means. In all cases, 8-methyl-5-nitroquinoline was used as a second internal control to confirm that strict hypoxia was present during the experiment. (Siim et al. Br. J. Cancer 1994, 70, 596-603). Cell cultures were grown in αMEM (Gibco) containing 5% heat inactivated FCS and maintained in exponential growth phase. For each individual experiment an appropriate number of cells were seeded (HT-29=1000) into wells in αMEM÷10% FCS+10 mM added glucose+100 μM 2′-deoxycytidine (2′dCyd), and allowed to attach for 3 h. High glucose (final concentration 17 mM) and the presence of 2′-dCyd minimize hypoxia-induced cell cycle arrest. Replicates were then exposed to BTOs, using 2-fold serial dilutions in triplicate, for a further 4 h. Subsequently cells were washed free of compound using complete media (without glucose/2′-dCyd) and allowed to grow for 5 (oxic) or 6 (anoxic) days. Plates were stained as described previously (Wilson et al., J. Med. Chem. 1989, 32, 31-38) and IC50 values determined.
(§5) IC50=The concentration of drug (in micromolar) to reduce viable cell numbers to 50% of those of control cell cultures grown under the same conditions but not exposed to drug
as §1
(§6) HCR=Hypoxic cytotoxicity ratio is defined as the ratio of drug concentrations under aerobic and hypoxic condition to produce equal cell survival (50%) determined by proliferation assay

[3] = tested on: human cervical carcinoma SiHa; test: Proliferation assay (IC50) under aerobic and hypoxic conditions, SiHa; assay type: cell-based; details: for IC50: Homo sapiens, hypoxic, 4 h exposure; for RHT: ratio Tirapazamine/test compound under hypoxic conditions; for HCR: ratio of IC50 under aerobic and hypoxic conditions
Experimental: as §2, §3, §4, §5, §1, §6

SMILES	melting point	IC50 [2] [µM]	RHT [2]	HCR [2]	also measured
Cc1cccc2nc3cccc(C(=O)NCCCNCCCNc4n[n+]([O-])c5ccccc5[n+]4[O-])c3nc12.Cl	183 to 186 °C				
O=C(NCCCNc1n[n+]([O-])c2ccccc2[n+]1[O-])c1cccc2cc3ccccc3nc12 (as salt: hydrochloride) [Compound 17, N-{3-[(1,4-Dioxido-1,2,4-benzotriazin-3-yl)amino]propyl}-4-acridinecarboxamide]	192 °C				
O=C(NCCCCCCNc1n[n+]([O-])c2ccccc2[n+]1[O-])c1cccc2cc3ccccc3nc12 [Compound 12, N-{6-[(1,4-Dioxido-1,2,4-benzotriazin-3-yl)amino]hexyl}-4-acridinecarboxamide]	196 to 198 °C				
O=C(NCCCCCCNc1n[n+]([O-])c2ccccc2[n+]1[O-])c1ccnc2ccccc12 [Compound 13, N-{6-[(1,4-Dioxido-1,2,4-benzotriazin-3-yl)amino]hexyl}-4-quinolinecarboxamide]	196 to 198 °C				
O=C(NCCCNc1n[n+]([O-])c2ccccc2[n+]1[O-])c1cccc2cc3ccccc3nc12 [Compound 17, N-{3-[(1,4-Dioxido-1,2,4-benzotriazin-3-yl)amino]propyl}-4-acridinecarboxamide]					IC90 [1]: 4.8 µM; HCR [1]: >6.3; RHT [1]: 1.94
O=C(NCCOCCNc1n[n+]([O-])c2ccccc2[n+]1[O-])c1cccc2cccnc12 [Compound 24, N-(2-{2-[(1,4-Dioxido-1,2,4-benzotriazin-3-yl)amino]ethoxy}ethyl)-8-quinolinecarboxamide]	168 to 170 °C				
O=C(NCCOCCNc1n[n+]([O-])c2ccccc2[n+]1[O-])c1cccc2[nH]c(-c3ccccc3)nc12 [Compound 25, N-(2-{2-[(1,4-Dioxido-1,2,4-benzotriazin-3-yl)amino]ethoxy}ethyl)-2-phenyl-1H-benzimidazole-4-carboxamide]	203 to 207 °C				
O=C(NCCOCCNc1n[n+]([O-])c2ccccc2[n+]1[O-])c1cccc2ccc(-c3ccncc3)nc12 [Compound 26, N-(2-{2-[(1,4-Dioxido-1,2,4-benzotriazin-3-yl)amino]ethoxy}ethyl)-2-(4-pyridinyl)-8-quinolinecarboxamide]	128 to 130 °C				
O=C(NCCNCCNc1n[n+]([O-])c2ccccc2[n+]1[O-])c1cccc2cc3ccccc3nc12 [Compound 37, N-[2-({2-[(1,4-Dioxido-1,2,4-benzotriazin-3-yl)amino]ethyl}amino)ethyl]-4-acridinecarboxamide]		0.079	74	160	
CN(CCCNC(=O)c1cccc2cccnc12)CCCNc1n[n+]([O-])c2ccccc2[n+]1[O-] [Compound 42, N-{3-[{3-[(1,4-Dioxido-1,2,4-benzotriazin-3-yl)amino]propyl}(methyl)amino]propyl}-8-quinolinecarboxamide]		0.517	11.2	86.2	

The next lines start with results.

melting point	IC50 [2] [µM]	SMILES	RHT [2]	HCR [2]	also measured
173 °C		CN(CCCNC(=O)c1cccc2nc3ccccc3nc12)CCCc1n[n+]([O-])c2ccccc2[n+]1[O-] (as salt: hydrochloride) [Compound 63, N-{3-[[3-(1,4-Dioxido-1,2,4-benzotriazin-3-yl)propyl](methyl)amino]propyl}-1-phenazinecarboxamide]			
	0.113	CN(CCCNC(=O)c1cccc2ccc(-c3ccncc3)nc12)CCCNc1n[n+]([O-])c2ccccc2[n+]1[O-] [Compound 43, N-{3-[{3-[(1,4-dioxido-1,2,4-benzotriazin-3-yl)amino]propyl}(methyl)amino]-propyl}-2-(4-pyridyl)-8-quinolinecarboxamide]	51.4	119	IC90 [1]: 1.4 µM; HCR [1]: 10; RHT [1]: 5.7
	0.226	Cc1cccc2cc3cccc(C(=O)NCCCN(C)CCCNc4n[n+]([O-])c5ccccc5[n+]4[O-])c3nc12 [Compound 44, N-{3-[{3-[(1,4-dioxido-1,2,4-benzotriazin-3-yl)amino]propyl}(methyl)amino]-propyl}-5-methyl-4-acridinecarboxamide]	25.7	72.7	IC90 [1]: 0.16 µM; HCR [1]: >187; RHT [1]: 56.3
	0.124	COCCOc1ccc2c(c1)[n+]([O-])nc(NCCCN(C)CCCNC(=O)c1cccc3cc4ccccc4nc13)[n+]2[O-] [Compound 55, N-{3-[(3-{[7-(2-Methoxyethoxy)-1,4-dioxido-1,2,4-benzotriazin-3-yl]amino}propyl)(methyl)amino]propyl}-4-acridinecarboxamide]	47	97	IC90 [1]: 1.1 µM; HCR [1]: 63.6; RHT [1]: 10; IC50 [3]: 0.05 µM; RHT [3]: 72; HCR [3]: 124
	0.021	CN(CCCNC(=O)c1cccc2cc3ccccc3nc12)CCCc1n[n+]([O-])c2ccccc2[n+]1[O-] [Compound 62, N-{3-[[3-(1,4-dioxido-1,2,4-benzotriazin-3-yl)propyl](methyl)amino]propyl}-4-acridinecarboxamide]	274	157	
	0.034	CN(CCCNC(=O)c1cccc2nc3ccccc3nc12)CCCc1n[n+]([O-])c2ccccc2[n+]1[O-] [Compound 63, N-{3-[[3-(1,4-Dioxido-1,2,4-benzotriazin-3-yl)propyl](methyl)amino]propyl}-1-phenazinecarboxamide]	167	129	
202 °C (dec.)		O=C(CCNc1ccnc2cc(Cl)ccc12)NCCCNc1n[n+]([O-])c2ccccc2[n+]1[O-] [Compound 65, 3-[(7-Chloro-4-quinolinyl)amino]-N-{3-[(1,4-dioxido-1,2,4-benzotriazin-3-yl)amino]propyl}propanamide]			
118 to 122 °C		Cc1ccc2c(c1)[n+]([O-])nc(NCCCN(C)CCCNC(=O)c1cccc3nc4ccccc4nc13)[n+]2[O-] [Compound 76, N-[3-(Methyl{3-[(7-methyl-1,4-dioxido-1,2,4-benzotriazin-3-yl)amino]propyl}amino)propyl]-1-phenazinecarboxamide]			
119 to 122 °C		Cc1ccc2c(c1)[n+]([O-])nc(NCCCNCCCNC(=O)c1cccc3nc4cccc(C)c4nc13)[n+]2[O-] [Compound 77, 9-Methyl-N-[3-({3-[(7-methyl-1,4-dioxido-1,2,4-benzotriazin-3-yl)amino]propyl}amino)propyl]-1-phenazinecarboxamide]			
	0.222	Cc1ccc2c(c1)[n+]([O-])c(NCCCN(C)CCCNC(=O)c1cccc3cc4ccccc4nc13)n[n+]2[O-] [Compound 85, N-[3-(Methyl{3-[(6-methyl-1,4-dioxido-1,2,4-benzotriazin-3-yl)amino]propyl}amino)propyl]-4-acridinecarboxamide]	26	134	
	0.18	CN(CCNC(=O)c1cccc2cc3ccccc3nc12)CCNc1n[n+]([O-])c2ccccc2[n+]1[O-] [Compound 95, N-{2-[{2-[(1,4-Dioxido-1,2,4-benzotriazin-3-yl)amino]ethyl}(methyl)amino]ethyl}-4-acridinecarboxamide]	71	74	IC90 [1]: 1 µM; HCR [1]: 400; RHT [1]: 11; IC50 [3]: 0.076 µM; RHT [3]: 48; HCR [3]: 89

— patent publication US20070191372A1, “Dna-targeted benzotriazine 1,4-dioxides and their use in cancer therapy” (Auckland Uniservices Limited, priority 2002, published 2007)
